# Test results from patent US20240279176A1, “SUBSTITUTED TRICYCLIC HETEROCYCLIC COMPOUNDS AS METALLO-BETA-LACTAMASE INHIBITORS” (priority 2021, published 2024).
# Read-outs that look alike come from different tables or passages of the source.
# How the values were obtained:
# [1] = test system: Klebsiella pneumoniae ATCC BAA-2146; test: Checkerboard synergy assay in combination with Meropenem; assay type: cell-based; settings: K. pneumoniae ATCC BAA-2146; for Fold reduction in meropenem MIC in the presence of compounds (μg/mL) 4: compound at 4 μg/mL; for Fold reduction in meropenem MIC in the presence of compounds (μg/mL) 8: compound at 8 μg/mL; for Fold reduction in meropenem MIC in the presence of compounds (μg/mL) 16: compound at 16 μg/mL; for Fold reduction in meropenem MIC in the presence of compounds (μg/mL) 32: compound at 32 μg/mL
# Text: (§1) The strain included in the study was Klebsiella pneumoniae ATCC BAA-2146 (Himedia®, India) with presence of New Delhi metallo-β-lactamase (NDM-1) gene. The quality control reference strains Escherichia coli ATCC 25922 and Pseudomonas aeruginosa ATCC 27853 were procured from Himedia®, India.
# (§2) The fold modulation activity of test compounds, in combination with Imipenem or Meropenem, was checked against Klebsiella pneumoniae ATCC BAA-2146 strain by the broth-microdilution checkerboard synergy assay. The plates contained 5×10^5 CFU/mL bacterial inocula and 2-fold serial dilutions of the antibiotics (128-2 μg/mL) as well as test compounds (32-4 μg/mL) in a total volume of 200 μL of CA-MHB. Dimethyl sulfoxide (DMSO, ≤2.5%) was included as vehicle control. Following 16-18 h of incubation at 37° C., the MICs of antibiotics as well as drug combinations were visually inspected.
# NDM-1 = NDM-1 (Klebsiella pneumoniae, UniProt C7C422); test: Enzyme activity: IC50 in fluorescence assay with cephalosporin substrate FC5; assay type: biochemical; settings: 50 pM NDM-1, 1.5 μM FC5, 10 min pre-incubation
# NDM-1, sequence (C7C422 29-270, looked up): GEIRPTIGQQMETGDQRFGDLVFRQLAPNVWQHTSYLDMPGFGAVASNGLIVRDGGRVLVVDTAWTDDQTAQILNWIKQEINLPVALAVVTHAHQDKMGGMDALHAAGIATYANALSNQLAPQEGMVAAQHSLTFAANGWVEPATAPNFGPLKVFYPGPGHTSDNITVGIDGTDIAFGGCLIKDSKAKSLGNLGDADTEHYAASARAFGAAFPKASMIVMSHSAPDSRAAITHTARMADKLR
# Procedure: (§3) The Class B beta-lactamases activities were measured in the presence of the test inhibitors in a fluorescence assay against an in-house synthesized fluorescent cephalosporin substrate FC5 (Berkel, et. al. J. Med. Chem. 2013, 56(17), 6945). The enzymes (NDM-1, IMP-1) and the substrate were diluted in 20 mM HEPES, pH 7.4, supplemented with 300 mM NaCl and 10 μM ZnSO4. In the assay, the final concentration of enzyme was 50 pM, and 100 pM for NDM-1, and IMP-1 respectively, and the final concentration of FC5 was 1.5 μM for NDM-1 and 10 μM for IMP-1. The test inhibitors/compounds were dissolved in dimethylsulfoxide (DMSO) and diluted in the assay with assay buffer (20 mM HEPES, pH 7.4, supplemented with 5% DMSO, 300 mM NaCl and 10 μM ZnSO4), resulting in a final concentration range of 0.008 μM to 25 μM. The assays were performed in 96-well microplate (flat bottom, black). The test inhibitors were incubated with the MBL enzyme for 10 min at room temperature, followed by addition the substrate and the fluorescence was recorded immediately (λex 380 nm, λem 460 nm) on a microplate reader. Using the initial velocity data plotted against the inhibitor concentration, the half-maximal inhibitory concentrations were calculated by an IC50 curve-fitting model in GraphPad Prism 9 software.
# IMP-1 = IMP-1 (Serratia marcescens, UniProt P52699); test: as above; assay type: biochemical; settings: 100 pM IMP-1, 10 μM FC5, 10 min pre-incubation
# IMP-1, sequence (P52699 19-246, looked up, species assumed): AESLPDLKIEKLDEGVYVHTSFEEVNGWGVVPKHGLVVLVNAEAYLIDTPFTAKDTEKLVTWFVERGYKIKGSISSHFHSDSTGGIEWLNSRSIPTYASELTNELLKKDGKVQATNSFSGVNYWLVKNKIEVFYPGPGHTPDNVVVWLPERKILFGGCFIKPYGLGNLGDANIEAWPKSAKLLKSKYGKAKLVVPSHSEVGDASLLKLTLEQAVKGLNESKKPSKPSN
# Procedure: as §3
# [2] = test system: Klebsiella pneumoniae ATCC BAA-2146; test: Minimum inhibitory concentration (MIC), broth-microdilution (CLSI); assay type: cell-based
# Text: as §1
# MIC values were identified through broth-microdilution in sterilized 96-well polystyrene flat-bottom microtitre plates (Cole-Parmer®) according to the guideline of the Clinical and Laboratory Standards Institute (CLSI) (CLSI; Methods for dilution antimicrobial susceptibility tests for bacteria that grow aerobically; Clinical Laboratory Standards Institute, M07-A09, 2012). This method involves the use of BBL™ Cation-adjusted Mueller-Hinton II Broth (CA-MHB; BD) and the strain (Klebsiella pneumoniae ATCC BAA-2146) concentration was adjusted to 5×10^5 CFU/mL. After 16-18 h of incubation at various concentrations of Imipenem, Meropenem (Alfa Aesar), or test compounds at 37° C., MIC was defined as the lowest concentration of antibiotic or test compound with no visible growth.
# [3] = test system: Klebsiella pneumoniae ATCC BAA-2146; test: Checkerboard synergy assay in combination with Imipenem; assay type: cell-based; settings: K. pneumoniae ATCC BAA-2146; for Fold reduction in Imipenem MIC in the presence of compounds (μg/mL) 4: compound at 4 μg/mL; for Fold reduction in Imipenem MIC in the presence of compounds (μg/mL) 8: compound at 8 μg/mL; for Fold reduction in Imipenem MIC in the presence of compounds (μg/mL) 16: compound at 16 μg/mL; for Fold reduction in Imipenem MIC in the presence of compounds (μg/mL) 32: compound at 32 μg/mL
# Text: as §1, §2
# [4] = ATCCBAA2146, compound alone, Imipenem series, K. pneumoniae ATCC BAA-2146, read-out: Intrinsic MIC
# [5] = ATCCBAA2146, compound alone, meropenem series, K. pneumoniae ATCC BAA-2146, read-out: Intrinsic MIC
Structure (SMILES),Fold reduction in meropenem MIC in the presence of compounds (μg/mL) 4 [1] [fold],Fold reduction in meropenem MIC in the presence of compounds (μg/mL) 8 [1] [fold],Fold reduction in meropenem MIC in the presence of compounds (μg/mL) 16 [1] [fold],Fold reduction in meropenem MIC in the presence of compounds (μg/mL) 32 [1] [fold],IC50 (NDM-1) [µM],IC50 (IMP-1) [µM],"MIC [2, 4] [µg/mL]","MIC [2, 5] [µg/mL]",Fold reduction in Imipenem MIC in the presence of compounds (μg/mL) 4 [3] [fold],Fold reduction in Imipenem MIC in the presence of compounds (μg/mL) 8 [3] [fold],Fold reduction in Imipenem MIC in the presence of compounds (μg/mL) 16 [3] [fold],Fold reduction in Imipenem MIC in the presence of compounds (μg/mL) 32 [3] [fold],"MIC ([2]; ATCCBAA2146, antibiotic alone, read-out: MIC of meropenem against Klebsiella pneumoniae ATCC BAA-2146) [µg/mL]"
"O=C(O)c1[nH]c2c(c1-c1cc(Cl)cc(Cl)c1)CCc1ccccc1-2 [Example 2, 3-(3,5-dichlorophenyl)-4,5-dihydro-1H-benzo[g]indole-2-carboxylic Acid]",4,8,8,16,0.036,0.026,> 64,> 128,–,–,–,–,–
"COc1ccc(F)cc1-c1c(C(=O)O)[nH]c2c1CCc1ccccc1-2 [Example 34, 3-(5-Fluoro-2-methoxyphenyl)-4,5-dihydro-1H-benzo[g]indole-2-carboxylic Acid]",4,4,4,16,0.103,0.096,> 128,> 128,4,8,8,16,–
"COc1ccccc1-c1c(C(=O)O)[nH]c2c1CCc1ccccc1-2 [Example 35, 3-(2-methoxyphenyl)-4,5-dihydro-1H-benzo[g]indole-2-carboxylic Acid]",4,4,8,8,0.248,1.81,> 128,> 128,2,4,4,8,–
"O=C(O)c1[nH]c2c(c1-c1cccc(Cl)c1)CCc1ccccc1-2 [Example 45, 3-(3-chlorophenyl)-4,5-dihydro-1H-benzo[g]indole-2-carboxylic Acid]",2,4,4,8,0.132,–,> 128,> 128,2,4,8,8,–
"Cc1ccc(-c2c(C(=O)O)[nH]c3c2CCc2ccccc2-3)c(F)c1 [Example 49, 3-(2-fluoro-4-methylphenyl)-4,5-dihydro-1H-benzo[g]indole-2-carboxylic Acid]",2,2,4,4,0.319,2.05,> 128,> 128,–,–,–,–,–
"Cc1cc(Cl)cc(-c2c(C(=O)O)[nH]c3c2CCc2ccccc2-3)c1 [Example 57, 3-(3-chloro-5-methylphenyl)-4,5-dihydro-1H-benzo[g]indole-2-carboxylic Acid]",4,4,8,8,1.6,–,> 128,> 128,4,8,8,16,–
"O=C(O)c1[nH]c2c(c1-c1cc(F)cc(Cl)c1)CCc1ccccc1-2 [Example 58, 3-(3-chloro-5-fluorophenyl)-4,5-dihydro-1H-benzo[g]indole-2-carboxylic Acid]",–,–,–,–,0.009,0.869,> 128,> 128,4,8,8,16,–
"O=C(O)c1[nH]c2c(c1-c1cc(Cl)c(Cl)c(Cl)c1)CCc1ccccc1-2 [Example 60, 3-(3,4,5-trichlorophenyl)-4,5-dihydro-1H-benzo[g]indole-2-carboxylic Acid]",4,8,8,8,–,1.56,> 128,> 128,4,8,8,16,–
"COc1cc(F)cc(-c2c(C(=O)O)[nH]c3c2CCc2ccccc2-3)c1 [Example 62, 3-(3-fluoro-5-methoxyphenyl)-4,5-dihydro-1H-benzo[g]indole-2-carboxylic Acid]",–,–,–,–,0.196,3.45,> 128,> 128,4,4,8,8,–
"O=C(O)c1[nH]c2c(c1-c1ccccc1)CCc1ccccc1-2 [Example 63, 3-phenyl-4,5-dihydro-1H-benzo[g]indole-2-carboxylic Acid]",–,–,–,–,2.36,4.05,> 128,> 128,4,4,8,8,–
"CC1Cc2c([nH]c(C(=O)O)c2-c2cc(F)cc(Cl)c2)-c2ccccc21 (stereo not shown) [Example 64, 3-(3-chloro-5-fluorophenyl)-5-methyl-4,5-dihydro-1H-benzo[g]indole-2-carboxylic Acid]",–,–,–,–,1.42,0.821,> 128,> 128,4,4,8,8,–
"C[C@@H](O)[C@H]1C(=O)N2C(C(=O)O)=C(S[C@@H]3CN[C@H](C(=O)N(C)C)C3)[C@H](C)[C@H]12 [meropenem, reference compound]",–,–,–,–,–,–,–,–,–,–,–,–,128
